Read-outs that look alike come from different tables or passages of the source.
Legend:
[1] = target: T1, Human recombinant cathepsin S (Homo sapiens, UniProt P25774); conditions: reference compound of the CatS assay; 0.1 μg/ml enzyme, acetate buffer pH 4.5, 25° C.; cited from earlier work
T1 construct: host or cells: murine myeloma NS0 cells

Human recombinant ECE-1 = target: T2, Human recombinant ECE-1 (Homo sapiens, UniProt P42892); assay: Endothelin converting enzyme-1 (ECE-1) enzyme assay; format: biochemical; conditions: for inhibition at 10 µM: read-out: % Inhibition at 10 μM
T2 construct: host or cells: murine myeloma NS0 cells
T2 sequence (P42892 1-770): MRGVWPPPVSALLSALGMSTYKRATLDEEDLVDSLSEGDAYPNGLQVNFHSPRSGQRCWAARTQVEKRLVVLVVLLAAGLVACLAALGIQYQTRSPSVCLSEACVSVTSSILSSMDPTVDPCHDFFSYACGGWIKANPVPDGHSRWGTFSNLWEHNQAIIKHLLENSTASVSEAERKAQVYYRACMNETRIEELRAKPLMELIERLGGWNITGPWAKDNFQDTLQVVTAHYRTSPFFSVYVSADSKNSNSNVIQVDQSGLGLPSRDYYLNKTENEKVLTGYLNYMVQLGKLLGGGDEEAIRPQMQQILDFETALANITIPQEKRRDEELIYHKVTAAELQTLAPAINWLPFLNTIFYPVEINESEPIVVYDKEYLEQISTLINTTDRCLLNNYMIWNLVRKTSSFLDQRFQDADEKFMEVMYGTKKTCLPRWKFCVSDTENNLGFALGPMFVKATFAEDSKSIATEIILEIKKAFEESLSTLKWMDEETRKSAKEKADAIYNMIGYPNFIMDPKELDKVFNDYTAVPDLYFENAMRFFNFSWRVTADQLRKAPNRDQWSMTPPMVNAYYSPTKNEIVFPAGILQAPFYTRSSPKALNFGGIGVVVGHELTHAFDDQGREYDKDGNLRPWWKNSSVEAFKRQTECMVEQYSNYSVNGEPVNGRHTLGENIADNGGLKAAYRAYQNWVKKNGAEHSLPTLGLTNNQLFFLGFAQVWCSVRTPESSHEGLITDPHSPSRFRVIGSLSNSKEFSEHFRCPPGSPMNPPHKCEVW
Protocol: (§1) 2. Enzyme Assays for the Peptidase Endothelin Converting Enzyme-1 (ECE-1) and for the Cysteine Protease Cathepsin S (CatS)
(§2) The assays were performed according to provider's (Ricerca Biosciences, LLC) protocols which in turn are based on literature procedures (for ECE-1 cf.: O. Valdenaire et al., Eur. J. Biochem. 1999, 264, 341-349; F. D. Russell, A. P. Davenport, Circ. Res. 1999, 84, 891-896; and for CatS: G P Shi et al., J. Biol. Chem. 1992, 267, 7258-62; D Brömme et al., J. Biol. Chem. 1993 268, 4832-4838.).
Human recombinant ECE-1 expressed in murine myeloma cells NS0 is used. Test compound and/or vehicle is preincubated with 20 ng/ml enzyme in modified MES buffer pH 6.0 for 15 minutes at 25° C. The reaction is initiated by addition of […] Mca-[…]Dnp) for another 60 minutes' incubation period. Determination of the amount of Mca-Arg-Pro-Pro-Gly-Phe-Ser-Ala formed is read […] at 320 nm/405 nm. Compounds are screened at […].
IC50 values were determined by a non-linear, least squares regression analysis using MathIQ™ (ID Business Solutions Ltd., UK). […] The Hill coefficient (nH), defining the slope of the competitive binding curve, was calculated using MathIQ™.

[2] = target: T1, Human recombinant cathepsin S; assay: Cathepsin S (CatS) enzyme assay; format: biochemical; conditions: for inhibition at 10 µM: 10 μM compound
Protocol: as §1, §2
Human recombinant cathepsin S expressed in a murine myeloma NS0 cells is used. Test compound and/or vehicle is preincubated with 0.1 μg/ml enzyme in modified acetate buffer pH 4.5 for 15 minutes at 25° C. The reaction is initiated by addition of […] Z-Leu-Arg-AMC for another 30 minutes' incubation period. Determination of the amount of AMC formed is read spectrofluorimetrically at 360 nm/465 nm. […]
IC50 values were determined by a non-linear, least squares regression analysis using MathIQ™ (ID Business Solutions Ltd., UK). Inhibition constants K were calculated according to the equation of Cheng and Prusoff (Y. Cheng, W. H. Prusoff, Biochem. Pharmacol. 1973, 22, 3099-3108) using the observed IC50 of the tested compound, the concentration of radioligand employed in the assay, and the historical values for the KD of the ligand. The Hill coefficient (nH), defining the slope of the competitive binding curve, was calculated using MathIQ™.

[3] = target: T3, Bombesin receptor subtype 3 (BB3 receptor) (Homo sapiens, UniProt P32247); assay: Ca2+ flux (FLIPR) assay, BB3 receptor, agonist/antagonist mode; format: cell-based; conditions: agonist mode
T3 construct: expressed in transfected cells; host or cells: Ca2+ optimized hematopoietic cell lines (rat)
T3 sequence (P32247 1-399): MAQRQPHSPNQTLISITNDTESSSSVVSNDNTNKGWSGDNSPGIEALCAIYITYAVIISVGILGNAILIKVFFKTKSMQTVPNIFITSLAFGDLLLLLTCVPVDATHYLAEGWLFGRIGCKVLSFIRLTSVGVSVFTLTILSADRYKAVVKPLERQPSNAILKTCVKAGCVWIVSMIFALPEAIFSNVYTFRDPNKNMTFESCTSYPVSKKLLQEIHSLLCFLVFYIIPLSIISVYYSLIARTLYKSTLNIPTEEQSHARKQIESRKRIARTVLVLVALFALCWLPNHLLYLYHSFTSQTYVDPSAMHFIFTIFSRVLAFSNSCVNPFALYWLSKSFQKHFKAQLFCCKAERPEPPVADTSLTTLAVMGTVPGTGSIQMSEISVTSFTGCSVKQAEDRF
Protocol: Biological and Pharmacological Methods 1. Ca^2+ Flux Assays for the GPCRs Oxytocin Receptor (OT Receptor), Thyrotropin-Releasing Hormone Receptor (TRH Receptor) and Bombesin Receptor Subtype 3 (BB3 Receptor)
Assays were performed on a FLIPR^TETRA fluorometric imaging plate reader (Molecular Devices) with ScreenWorks Version 2 (Molecular Devices) as device operating and data analysis software.
Dose dependent agonist and antagonist activities were determined. Percentage activation and percentage inhibition values were determined.
Percentage activation was determined upon initial addition of the sample compounds followed by 10 minutes' incubation at 25° C. Following compound incubation, reference agonists were added at EC80 to determine percentage inhibition.
Reference agonists were purchased from reputable commercial vendors and prepared according to each ligand's specifications. All handling of ligands were done to ensure proper control throughout the experiments.
Example compounds were weighed on a Microbalance (Mettler MX5) and dissolved in 100% DMSO to a final concentration of 2.5 mM and subsequently diluted into the assay buffer.
The assay buffer was a supplemented HBSS (Hank's Balanced Salt Solution). HBSS was supplemented with 20 mM HEPES (4-(2-hydroxyethyl)-piperazin-1-ethansulfonic acid) and 2.5 mM Probenecid (Sigma P8761).
GPCR assays were performed using Ca^2+ optimized hematopoietic cell lines (rat) with cultures never exceeding 90% confluency. Cells were harvested and seeded (from cultures at less than 90% confluency) at 50000 cells/well for a 96-well plate (12500 cells/well for 384). After seeding, the assay plates were incubated for 45 minutes at room temperature. After room temperature incubation, the assay plates were incubated at 37° C. 5% CO2 for 24 hours prior to assaying.
All GPCR assays were performed using Fluo-8 Ca^2+ dye.
Ca^2+ dye was prepared at 1× dye concentration in GPCR assay buffer. After 24 hours of incubation, cells were washed with GPCR assay buffer, and then Ca^2+-dye (100 μL/well) was added.
The plates were incubated for 90 minutes at 30° C. 5% CO2 prior to FLIPR assay.
Compound plates were prepared to add 50 μL/well during the agonist assay mode. During the FLIPR assay, 50 μL/well from the compound plate was diluted 3-fold into the existing 100 μL/well from the dye loading step. Therefore all compounds were prepared as 3× the final concentration desired in the assay.
After completion of the first single addition assay run, assay plate was removed from the FLIPR Tetra and placed at 25° C. for 7 minutes before antagonist assay.
Using the EC80 values determined during the agonist assay, all pre-incubated sample compound and reference antagonist (if applicable) wells were stimulated at the EC80 of the reference agonist. As reference ligands for these assays their obvious natural ligands oxytocin (OT), thyrotropin-releasing hormone (TRH) and bombesin (6-14) [BN(6-14)] were used.
After the addition of the reference agonist fluorescence was monitored for 180 sec using FLIPR Tetra.
From the FLIPR data, with negative control correction enabled, the maximum statistic for each well was exported and percentage activation relative to Emax control was calculated.

T1 sequence (P25774 115-331): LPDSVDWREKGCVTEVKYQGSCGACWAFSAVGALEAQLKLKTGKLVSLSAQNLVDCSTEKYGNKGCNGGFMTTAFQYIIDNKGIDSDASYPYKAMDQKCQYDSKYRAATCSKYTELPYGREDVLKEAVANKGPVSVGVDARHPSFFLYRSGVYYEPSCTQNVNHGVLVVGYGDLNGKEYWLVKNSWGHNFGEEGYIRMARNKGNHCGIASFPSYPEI

For `CC(C)C[C@H](NC(=O)[C@H]1O[C@@H]1C(=O)O)C(=O)NCCCCN=C(N)N` [E-64], the IC50 [1] is listed as 0.0014 µM.

For `CN1CCC[C@H](NC(=O)OCc2ccccc2)C(=O)N2C[C@@H](NC(=O)Cc3ccc4ccccc4c3)C[C@H]2COc2ccccc2-c2cccc(c2)C1=O` [Ex. 18, benzyl N-[(10S,12S,16S)-20-methyl-12-{[2-(2-naphthyl)acetyl]amino}-15,21-dioxo-8-oxa-14,20-diazatetracyclo[20.3.1.0^2,7.0^10,14]hexacosa-1(26),2,4,6,22,24-hexaen-16-yl]carbamate], the IC50 (Human recombinant ECE-1) was 3.01 µM, the inhibition at 10 µM (Human recombinant ECE-1) was 98% and the IC50 [2] was 3.65 µM. The inhibition at 10 µM [2] was 82%.

Work on `CN1CCC[C@H](NC(=O)Cc2ccccc2)C(=O)N2C[C@@H](NC(=O)Cc3ccc4ccccc4c3)C[C@H]2COc2ccccc2-c2cccc(c2)C1=O` [Ex. 25, N-[(10S,12S,16S)-20-methyl-15,21-dioxo-16-[(2-phenylacetyl)amino]-8-oxa-14,20-diazatetracyclo[20.3.1.0^2,7.0^10,14]hexacosa-1(26),2,4,6,22,24-hexaen-12-yl]-2-(2-naphthyl)acetamide] yielded an IC50 (Human recombinant ECE-1) of 4.28 µM, an inhibition at 10 µM (Human recombinant ECE-1) of 97% and an IC50 [2] of 3.18 µM. For the same molecule, the inhibition at 10 µM [2] was 87%.

Molecule `CN1CCC[C@H](NC(=O)c2ccccc2)C(=O)N2C[C@@H](NC(=O)Cc3ccc4ccccc4c3)C[C@H]2COc2ccccc2-c2cccc(c2)C1=O` [Ex. 26, N-[(10S,12S,16S)-20-methyl-12-{[2-(2-naphthyl)acetyl]amino}-15,21-dioxo-8-oxa-14,20-diazatetracyclo[20.3.1.0^2,7.0^10,14]hexacosa-1(26),2,4,6,22,24-hexaen-16-yl]benzamide] has an IC50 (Human recombinant ECE-1) of 4.07 µM, an inhibition at 10 µM (Human recombinant ECE-1) of 98% and an IC50 [2] of 3.83 µM. The inhibition at 10 µM [2] was 81%.

In the case of `CN1CC[C@H](NC(=O)Cc2ccc3ccccc3c2)C(=O)N2C[C@@H](O)C[C@H]2COc2ccsc2-c2cc(n(C)n2)C1=O` [Ex. 265, N-[(9S,11S,15S)-11-hydroxy-18,21-dimethyl-14,19-dioxo-7-oxa-3-thia-13,18,21,22-tetraazatetracyclo[18.2.1.0^2,6.0^9,13]tricosa-1(22),2(6),4,20(23)-tetraen-15-yl]-2-(2-naphthyl)acetamide], the EC50 [3] is reported as 0.63 µM and the “Agonist activity % activation at 12.5 μM” value [3] is reported as 84%.

In the case of `CN1CC[C@H](NC(=O)Cc2cccc3ccccc23)C(=O)N2C[C@@H](O)C[C@H]2COc2ccsc2-c2cc(n(C)n2)C1=O` [Ex. 267, N-[(9S,11S,15S)-11-hydroxy-18,21-dimethyl-14,19-dioxo-7-oxa-3-thia-13,18,21,22-tetraazatetracyclo[18.2.1.0^2,6.0^9,13]tricosa-1(22),2(6),4,20(23)-tetraen-15-yl]-2-(1-naphthyl)acetamide], the “Agonist activity % activation at 12.5 μM” value [3] is reported as 61%.

For `CO[C@H]1C[C@H]2COc3ccsc3-c3cc(n(C)n3)C(=O)N(C)CC[C@H](NC(=O)Cc3ccc4ccccc4c3)C(=O)N2C1` [Ex. 275, N-[(9S,11S,15S)-11-methoxy-18,21-dimethyl-14,19-dioxo-7-oxa-3-thia-13,18,21,22-tetraazatetracyclo[18.2.1.0^2,6.0^9,13]tricosa-1(22),2(6),4,20(23)-tetraen-15-yl]-2-(2-naphthyl)acetamide], the EC50 [3] was 0.78 µM and the “Agonist activity % activation at 12.5 μM” value [3] was 60%.

In the case of `CN1CC[C@H](NCCc2ccc3ccccc3c2)C(=O)N2C[C@@H](O)C[C@H]2COc2ccsc2-c2cc(n(C)n2)C1=O` [Ex. 282, (9S,11S,15S)-11-hydroxy-18,21-dimethyl-15-{[2-(2-naphthyl)ethyl]amino}-7-oxa-3-thia-13,18,21,22-tetraazatetracyclo[18.2.1.0^2,6.0^9,13]tricosa-1(22),2(6),4,20(23)-tetraene-14,19-dione], the “Agonist activity % activation at 12.5 μM” value [3] is reported as 39%.
